Reference: patent publication US9833497B2, “Human originated EGF domain proteins and use of the same” (CHENGDU SOURCEBIO LIMITED-LIABILITY COMPANY, priority 2013, dated 2017)

Assays:
Type in all cases: cell-based
E. coli DH5α = assay: Antibacterial activity: MIC and growth curve against E. coli DH5α in 96-well plate; settings: minimal inhibitory concentration against E. coli DH5α; 96-well plate, 5×10^5 CFU/mL, 37° C., judged after 8 h
Procedure, shortened: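 Log-phase DH5α (OD600 about 0.5, 37° C, 185 rpm in LB) was pelleted, resuspended in fresh LB and seeded at 5×10^5 CFU/mL with recombinant protein at 50, 25 and 12.5 μg/mL (two-fold series), in triplicate. Plates were shaken at 175 rpm, 37° C, and OD600 was read every 30 min. MIC was the lowest concentration with no growth.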

E. coli BL21 = assay: MIC against Gram-negative bacteria: E. coli BL21
Procedure, shortened: (§1)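 Purified recombinant human EGF domain proteins are tested by broth dilution in LB against a 5×10^5 CFU/mL inoculum, with two-fold serial dilutions run in triplicate. Plates are incubated at 37° C with shaking, and the MIC is read as the lowest protein concentration without growth.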

Pseudomonas aeruginosa = assay: MIC against Gram-negative bacteria: Pseudomonas aeruginosa
Procedure, shortened: as §1

Klebsiella pneumonia = assay: MIC against Gram-negative bacteria: Klebsiella pneumonia
Procedure, shortened: as §1

Enterobacter cloacae = assay: MIC against Gram-negative bacteria: Enterobacter cloacae
Procedure, shortened: as §1

Aeromonas hydrophila = assay: MIC against Gram-negative bacteria: Aeromonas hydrophila
Procedure, shortened: as §1

Citrobacter diversus = assay: MIC against Gram-negative bacteria: Citrobacter diversus
Procedure, shortened: as §1

Moraxella catarrhalis = assay: MIC against Gram-negative bacteria: Moraxella catarrhalis
Procedure, shortened: as §1

Proteus mirabilis = assay: MIC against Gram-negative bacteria: Proteus mirabilis
Procedure, shortened: as §1

Proteus vulgaris = assay: MIC against Gram-negative bacteria: Proteus vulgaris
Procedure, shortened: as §1

Serratia marcescens = assay: MIC against Gram-negative bacteria: Serratia marcescens
Procedure, shortened: as §1

[1] = 96-well plate, 5×10^5 CFU/mL, 37° C., 10 h
[2] = E. coli BL21, 10 h cultivation at 37° C., 5×10^5 CFU/mL
[3] = P. aeruginosa, 10 h cultivation at 37° C., 5×10^5 CFU/mL
[4] = K. pneumonia, 10 h cultivation at 37° C., 5×10^5 CFU/mL
[5] = E. cloacae, 10 h cultivation at 37° C., 5×10^5 CFU/mL
[6] = A. hydrophila, 10 h cultivation at 37° C., 5×10^5 CFU/mL
[7] = C. diversus, 10 h cultivation at 37° C., 5×10^5 CFU/mL
[8] = M. catarrhalis, 10 h cultivation at 37° C., 5×10^5 CFU/mL
[9] = P. mirabilis, 10 h cultivation at 37° C., 5×10^5 CFU/mL
[10] = P. vulgaris, 10 h cultivation at 37° C., 5×10^5 CFU/mL
[11] = S. marcescens, 10 h cultivation at 37° C., 5×10^5 CFU/mL
[12] = 10 h cultivation at 37° C., 5×10^5 CFU/mL, two-fold serial dilution

Substance: PRT923 (LDDACISNPCHKGALCDTNPLNGQYICTCPQGYKGADCT; listed as Homo sapiens)
- MIC (E. coli DH5α): 25 µg/mL
- MIC (E. coli BL21; E. coli BL21, 10 h cultivation at 37° C.): 50 µg/mL
- MIC (Pseudomonas aeruginosa; P. aeruginosa, 10 h cultivation at 37° C.): 25 µg/mL
- MIC (Klebsiella pneumonia; K. pneumonia, 10 h cultivation at 37° C.): 25 µg/mL
- MIC (Enterobacter cloacae; E. cloacae, 10 h cultivation at 37° C.): 12.5 µg/mL
- MIC (Aeromonas hydrophila; A. hydrophila, 10 h cultivation at 37° C.): 50 µg/mL
- MIC (Citrobacter diversus; C. diversus, 10 h cultivation at 37° C.): 25 µg/mL
- MIC (Moraxella catarrhalis; M. catarrhalis, 10 h cultivation at 37° C.): 12.5 µg/mL
- MIC (Proteus mirabilis; P. mirabilis, 10 h cultivation at 37° C.): 25 µg/mL
- MIC (Proteus vulgaris; P. vulgaris, 10 h cultivation at 37° C.): 50 µg/mL
- MIC (Serratia marcescens; S. marcescens, 10 h cultivation at 37° C.): 25 µg/mL

Substance: PRT490 (CASAPCRNGGVCREGWNRFICDCIGTGFLGRVCE; listed as Homo sapiens)
- MIC (E. coli DH5α): 25 µg/mL
- MIC against E. coli BL21 (E. coli BL21; [1]): 50 µg/mL
- MIC against P. aeruginosa (Pseudomonas aeruginosa; [1]): 25 µg/mL
- MIC against K. pneumonia (Klebsiella pneumonia; [1]): 12.5 µg/mL
- MIC against E. cloacae (Enterobacter cloacae; [1]): 25 µg/mL
- MIC against A. hydrophila (Aeromonas hydrophila; [1]): 50 µg/mL
- MIC against C. diversus (Citrobacter diversus; [1]): 25 µg/mL
- MIC against M. catarrhalis (Moraxella catarrhalis; [1]): 12.5 µg/mL
- MIC against P. mirabilis (Proteus mirabilis; [1]): 25 µg/mL
- MIC against P. vulgaris (Proteus vulgaris; [1]): 50 µg/mL
- MIC against S. marcescens (Serratia marcescens; [1]): 25 µg/mL

Substance: PRT177 (GPGPCDGNPCANGGSCSETPRSFECTCPRGFYGLRCE; listed as Homo sapiens)
- MIC (E. coli DH5α): 50 µg/mL
- MIC (μg/mL) E. coli BL21 (E. coli BL21; [2]): 25 µg/mL
- MIC (μg/mL) P. aeruginosa (Pseudomonas aeruginosa; [3]): 12.5 µg/mL
- MIC (μg/mL) K. pneumonia (Klebsiella pneumonia; [4]): 25 µg/mL
- MIC (μg/mL) E. cloacae (Enterobacter cloacae; [5]): 50 µg/mL
- MIC (μg/mL) A. hydrophila (Aeromonas hydrophila; [6]): 25 µg/mL
- MIC (μg/mL) C. diversus (Citrobacter diversus; [7]): 12.5 µg/mL
- MIC (μg/mL) M. catarrhalis (Moraxella catarrhalis; [8]): 25 µg/mL
- MIC (μg/mL) P. mirabilis (Proteus mirabilis; [9]): 50 µg/mL
- MIC (μg/mL) P. vulgaris (Proteus vulgaris; [10]): 25 µg/mL
- MIC (μg/mL) S. marcescens (Serratia marcescens; [11]): 12.5 µg/mL

Substance: PRT1107 (LMPLCWSKPCHNNATCEDSVDNYTCHCWPGYTGAQCE; listed as Homo sapiens)
- MIC (E. coli DH5α): 12.5 µg/mL
- MIC E. coli BL21 (E. coli BL21; [12]): 50 µg/mL
- MIC P. aeruginosa (Pseudomonas aeruginosa; [12]): 12.5 µg/mL
- MIC K. pneumonia (Klebsiella pneumonia; [12]): 50 µg/mL
- MIC E. cloacae (Enterobacter cloacae; [12]): 25 µg/mL
- MIC A. hydrophila (Aeromonas hydrophila; [12]): 12.5 µg/mL
- MIC C. diversus (Citrobacter diversus; [12]): 50 µg/mL
- MIC M. catarrhalis (Moraxella catarrhalis; [12]): 12.5 µg/mL
- MIC P. mirabilis (Proteus mirabilis; [12]): 50 µg/mL
- MIC P. vulgaris (Proteus vulgaris; [12]): 12.5 µg/mL
- MIC S. marcescens (Serratia marcescens; [12]): 25 µg/mL

Substance: PRT893 (NINECSSQPCRHGGTCQDRDNAYLCFCLKGTTGPNCE; listed as Homo sapiens)
- MIC (E. coli DH5α): 12.5 µg/mL
- MIC (μg/mL) E. coli BL21 (E. coli BL21; [2]): 25 µg/mL
- MIC (μg/mL) P. aeruginosa (Pseudomonas aeruginosa; [3]): 50 µg/mL
- MIC (μg/mL) K. pneumonia (Klebsiella pneumonia; [4]): 25 µg/mL
- MIC (μg/mL) E. cloacae (Enterobacter cloacae; [5]): 12.5 µg/mL
- MIC (μg/mL) A. hydrophila (Aeromonas hydrophila; [6]): 25 µg/mL
- MIC (μg/mL) C. diversus (Citrobacter diversus; [7]): 50 µg/mL
- MIC (μg/mL) M. catarrhalis (Moraxella catarrhalis; [8]): 25 µg/mL
- MIC (μg/mL) P. mirabilis (Proteus mirabilis; [9]): 12.5 µg/mL
- MIC (μg/mL) P. vulgaris (Proteus vulgaris; [10]): 50 µg/mL
- MIC (μg/mL) S. marcescens (Serratia marcescens; [11]): 12.5 µg/mL
